Reference: US20060287251A1, “Combination therapy for glycaemic control” (priority 2003, published 2006)

System: diabetic Zucker (fa/fa) rats
Experiment: Glutaminyl thiazolidine and Metformin alone or in combination, glycemic control in diabetic Zucker (fa/fa) rats
Type: in vivo, rat
Settings: b.i.d. oral; for reactive and absolute G-AUC: p<0.05 vs. Control; for glucose tolerance curve in the OGTT: vs. Control
Protocol: Ten or eleven weeks old male Zucker (fa/fa) rats were purchased from Charles River (Sulzfeld, Germany). Animals were kept under standardized semi-barrier conditions with controlled temperature (22±2° C.) on a 12/12 hours light/dark cycle (light on at 06:00 a.m.). Standard pelleted chow (ssniff®, Soest, Germany) and tap water acidified with HCl were allowed ad libitum. At the age of 12 weeks the animals (N=42) were divided in random order into six experimental groups to be medicated. Definition of the Experimental Groups for the Medications (GT=glutaminyl thiazolidine):
The single or combined doses per kg b.w. were solved in 5 mL dist. water for oral administration.
The study was started with the 12 to 13 weeks old Zucker (fa/fa) rats. At the beginning of the study an OGTT was performed (2 g glucose/kg body weight (b.w.); administration volume: 5 mL/kg of a 40% solution; B. Braun Melsungen, Melsungen, Germany) after a 16 h fast. […] Dosing was performed at t=5 min before OGTT by gavage.
Blood samples were taken from tail veins to measure blood glucose and serum insulin at −15, ±0 min, 15, 30, 60, 90, 120 and 180 min (the latter time without insulin samples) with respect to time of glucose administration.
After the first OGTT the animals in the groups were dosed twice daily with the respective drugs at 08:00 AM and at 04:00 PM, respectively:
During the two weeks of medication morning blood glucose was measured before the 08:00 AM medication at Monday, Wednesday and Friday.
Food intake was determined every day during the time of medication.
All the animals were weighted three times per week at 7:30 AM.
A second OGTT was performed after two weeks of medication (Day 15). The food was withdrawn at 04:00 PM the day before (16 h fast). The OGTT was performed with pre-medication at −5 min and oral glucose loading at ±0 min. Blood samples were taken from tail veins to measure blood glucose, and serum insuline at −15, ±0 min, 15, 30, 60, 90, 120 and 180 min (the latter time without insulin samples).
Glycated hemoglobin was measured before (Day −7) and on Day 18.
Glucose-For determination of glucose 20 μL blood were collected at −15, ±0 min (before OGTT) and 15, 30, 60, 90, 120 and 180 min post OGTT.
Insulin-Insulin concentrations were assayed by the antibody RIA method (Linco Research, Inc. St. Charles, Mo., USA).
Glycated haemoglobin-Percentage of glycated hemoglobin A (HbA1c) was estimated with the “DCA 2000R Hämoglobin A1c-Reagenz kit”(Bayer Vital GmbH, Fernwald, Germany).
The body weight was measured using a platform balance (Scaltec, Heiligenstadt, Germany).
Mixed venous blood samples from the tails were collected into 20 μL glass capillaries, which were placed in standard tubes filled with 1 ml solution for hemolysis (blood glucose measurement) and in sample tubes for serum insulin (50 μL blood).
Raw data of glucose analysis were provided by IDK to probiodrug in Excel format as soon as possible. Data for each drug and each parameter (glucose, insulin) were summarized by descriptive statistics (mean, SEM). […] Changes from baseline were calculated and summarized by descriptive statistic.

[1] = GT 60 mg/kg b.w. and/or Metformin 125 mg/kg b.w. (Met-low)
[2] = Metformin 300 mg/kg b.w. (Met-high) with or without GT 60 mg/kg b.w.

CN(C)C(=N)N=C(N)N [Metformin, 1,1-Dimethylbiguanidine]
reactive and absolute G-AUC [1]: significantly reduced | glucose tolerance curve in the OGTT [1]: significantly improved glucose tolerance curves | reactive and absolute G-AUC [2]: once more lowered | glucose tolerance curve in the OGTT [2]: further improvement of glucose tolerance curve
